From patent publication US9580444B2, “Polycyclic pyrazolinone derivative and herbicide comprising same as effective component thereof” (priority 2013, dated 2017) come the findings set out here.

Common to all, as to type: in vivo
Series [1] relates to Cyperus difformis (smallflower umbrella plant). As to the kind of experiment: Test Example-1: herbicidal effect by a treatment before weeds are generated under submerged conditions. As to conditions: 500 g a.i/ha, pre-emergence treatment, about 15 days after treatment, score 0-5. A digest of the protocol:
(§1)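 Treatment is made before weed emergence: seeds sit in puddled, submerged paddy soil and receive the diluted wettable powder or emulsifiable concentrate into the water at a fixed dosage. Rating on a 0–5 scale follows after around 15 days.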

Series [2] has as its system Echinochloa oryzicola (barnyard grass). Described as above. As to conditions: 500 g a.i/ha, pre-emergence treatment, about 15 days after treatment, score 0-5. An outline of the steps: as §1
For series [3], the system named is Eleocharis acicularis (needle spikerush). The series is described as above. As to conditions: 500 g a.i/ha, pre-emergence treatment, about 15 days after treatment, score 0-5. An outline of the steps: as §1
The test system of series [4] is Monochoria vaginalis (monochoria). The description is as above. The following applies: 500 g a.i/ha, pre-emergence treatment, about 15 days after treatment, score 0-5. A digest of the protocol: as §1
For series [5], the system named is Scirpus juncoides (bulrush). Described as above. The following applies: 500 g a.i/ha, pre-emergence treatment, about 15 days after treatment, score 0-5. An outline of the steps:
as §1

In series [6] the test system is other annual broad leaf weeds (Lindernia procumbens, Rotala indica, Elatine triandra). The series is described as above. As to conditions: 500 g a.i/ha, pre-emergence treatment, about 15 days after treatment, score 0-5. A digest of the protocol:
as §1

The test system of series [7] is Abutilon theophrasti (velvetleaf). As to the kind of experiment: Test Example-4: herbicidal effect by a foliage treatment after weeds are generated under upland field conditions. As to conditions: 500 g a.i/ha, foliage treatment after emergence, about 14 days after treatment, score 0-5. A digest of the protocol: (§2)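 Sown seeds, under about 0.5 cm of soil cover in upland soil, grew for 14 days before compound application. A wettable powder or emulsifiable concentrate, diluted to a predetermined dosage, was sprayed over foliage in 4000 L/ha water, with scoring on a 0–5 scale after roughly 14 days.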

Series [8] concerns Amaranthus viridis (green amaranthus). The series is described as above. As to conditions: 500 g a.i/ha, foliage treatment after emergence, about 14 days after treatment, score 0-5. An outline of the steps:
as §2

Series [9] deals with Chenopodium album (common lambsquarters). The series is described as above. The following applies: 500 g a.i/ha, foliage treatment after emergence, about 14 days after treatment, score 0-5. An outline of the steps: as §2
Another series relates to corn. As to the kind of experiment: Test Example-4: phytotoxicity by a foliage treatment after weeds are generated under upland field conditions. The following applies: 500 g a.i/ha, foliage treatment after emergence, about 14 days after treatment, score 0-5. A digest of the protocol: as §2

On to `C#CC(C)Oc1cc(-c2c(Cl)n3n(c2=O)CCCC3)c(F)cc1F` (centres unmarked) [Example 1-114], for which the “Herbicidal effect Cyperus difformis” value in series [1] is listed as 5 (Herbicidal effect/phytotoxicity was 90% or greater). Moreover, the “Herbicidal effect Echinochloa oryzicola” value in [2] is recorded as 5 (Herbicidal effect/phytotoxicity was 90% or greater). Moreover, the “Herbicidal effect Eleocharis acicularis” value in series [3] was 5 (Herbicidal effect/phytotoxicity was 90% or greater). For the same molecule, the “Herbicidal effect Monochoria vaginalis” value in [4] is recorded as 5 (Herbicidal effect/phytotoxicity was 90% or greater). In addition, the “Herbicidal effect Scirpus juncoides” value in series [5] is on record as 5 (Herbicidal effect/phytotoxicity was 90% or greater). In addition, the “Herbicidal effect Broadleaf weed” value in series [6] is 5 (Herbicidal effect/phytotoxicity was 90% or greater). In addition, in [7], the “Herbicidal effect Abutilon theophrast” value is 5 (Herbicidal effect/phytotoxicity was 90% or greater). In addition, the “Herbicidal effect Amaranthus viridis” value in series [8] is listed as 5 (Herbicidal effect/phytotoxicity was 90% or greater). Also, the “Herbicidal effect Chenopodium album” value in series [9] is reported as 5 (Herbicidal effect/phytotoxicity was 90% or greater). The “Phytotoxicity Corn” value in the series with corn is 3 (Herbicidal effect/phytotoxicity was 50% to 70%).

With `O=c1c(-c2cc(OCC3CC3)c(Cl)cc2F)c(Cl)n2n1CCCC2` [Example 1-176], the “Herbicidal effect Cyperus difformis” value in series [1] was 5 (Herbicidal effect/phytotoxicity was 90% or greater). Besides, the “Herbicidal effect Echinochloa oryzicola” value in series [2] was 5 (Herbicidal effect/phytotoxicity was 90% or greater). The “Herbicidal effect Eleocharis acicularis” value in series [3] is 5 (Herbicidal effect/phytotoxicity was 90% or greater). The “Herbicidal effect Monochoria vaginalis” value in series [4] was 5 (Herbicidal effect/phytotoxicity was 90% or greater). Moreover, in series [5], the “Herbicidal effect Scirpus juncoides” value is on record as 5 (Herbicidal effect/phytotoxicity was 90% or greater). In addition, in [6], the “Herbicidal effect Broadleaf weed” value was 5 (Herbicidal effect/phytotoxicity was 90% or greater). The “Herbicidal effect Abutilon theophrast” value in [7] is given as 5 (Herbicidal effect/phytotoxicity was 90% or greater). In [8], the “Herbicidal effect Amaranthus viridis” value was 5 (Herbicidal effect/phytotoxicity was 90% or greater). In addition, the “Herbicidal effect Chenopodium album” value in series [9] is 5 (Herbicidal effect/phytotoxicity was 90% or greater). Besides, the “Phytotoxicity Corn” value in the series with corn is 2 (Herbicidal effect/phytotoxicity was 30% to 50%).

In the case of `O=c1c(-c2cc(OCc3ccc(F)cc3)c(Cl)cc2F)c(Cl)n2n1CCCC2` [Example 1-192], the “Herbicidal effect Cyperus difformis” value in series [1] was 5 (Herbicidal effect/phytotoxicity was 90% or greater). Further, the “Herbicidal effect Echinochloa oryzicola” value in series [2] is 5 (Herbicidal effect/phytotoxicity was 90% or greater). Further, the “Herbicidal effect Eleocharis acicularis” value in series [3] was 5 (Herbicidal effect/phytotoxicity was 90% or greater). In addition, in [4], the “Herbicidal effect Monochoria vaginalis” value was 5 (Herbicidal effect/phytotoxicity was 90% or greater). Moreover, in series [5], the “Herbicidal effect Scirpus juncoides” value was 5 (Herbicidal effect/phytotoxicity was 90% or greater). Also, in [6], the “Herbicidal effect Broadleaf weed” value is 5 (Herbicidal effect/phytotoxicity was 90% or greater). In series [7], the “Herbicidal effect Abutilon theophrast” value is 5 (Herbicidal effect/phytotoxicity was 90% or greater). Moreover, the “Herbicidal effect Amaranthus viridis” value in [8] is 5 (Herbicidal effect/phytotoxicity was 90% or greater). Moreover, the “Herbicidal effect Chenopodium album” value in series [9] is recorded as 5 (Herbicidal effect/phytotoxicity was 90% or greater). For the same molecule, the “Phytotoxicity Corn” value in the series on corn is given as 1 (Herbicidal effect/phytotoxicity was 10% to 30%).

With `O=c1c(-c2ccc(Cl)cc2F)c(Cl)n2n1CCCC2` [Example 1-125], the “Herbicidal effect Cyperus difformis” value in [1] was 5 (Herbicidal effect/phytotoxicity was 90% or greater). Moreover, in [2], the “Herbicidal effect Echinochloa oryzicola” value is given as 5 (Herbicidal effect/phytotoxicity was 90% or greater). Besides, in series [3], the “Herbicidal effect Eleocharis acicularis” value was 5 (Herbicidal effect/phytotoxicity was 90% or greater). Further, in series [4], the “Herbicidal effect Monochoria vaginalis” value was 5 (Herbicidal effect/phytotoxicity was 90% or greater). Besides, the “Herbicidal effect Scirpus juncoides” value in series [5] is given as 5 (Herbicidal effect/phytotoxicity was 90% or greater). In addition, in series [6], the “Herbicidal effect Broadleaf weed” value is listed as 5 (Herbicidal effect/phytotoxicity was 90% or greater). For the same molecule, in [7], the “Herbicidal effect Abutilon theophrast” value is reported as 5 (Herbicidal effect/phytotoxicity was 90% or greater). Besides, the “Herbicidal effect Amaranthus viridis” value in series [8] was 5 (Herbicidal effect/phytotoxicity was 90% or greater). Also, the “Herbicidal effect Chenopodium album” value in series [9] is listed as 5 (Herbicidal effect/phytotoxicity was 90% or greater). Besides, in the series with corn, the “Phytotoxicity Corn” value was 1 (Herbicidal effect/phytotoxicity was 10% to 30%).

As to `C#CCOc1cc(-c2c(Cl)n3n(c2=O)CCCCC3)ccc1Cl` [Example 1-63], the “Herbicidal effect Cyperus difformis” value in series [1] was 5 (Herbicidal effect/phytotoxicity was 90% or greater). Also, the “Herbicidal effect Echinochloa oryzicola” value in series [2] is recorded as 5 (Herbicidal effect/phytotoxicity was 90% or greater). Besides, the “Herbicidal effect Eleocharis acicularis” value in series [3] was 5 (Herbicidal effect/phytotoxicity was 90% or greater). For the same molecule, the “Herbicidal effect Monochoria vaginalis” value in [4] was 5 (Herbicidal effect/phytotoxicity was 90% or greater). For the same molecule, the “Herbicidal effect Scirpus juncoides” value in series [5] is 5 (Herbicidal effect/phytotoxicity was 90% or greater). In series [6], the “Herbicidal effect Broadleaf weed” value is on record as 5 (Herbicidal effect/phytotoxicity was 90% or greater). Moreover, the “Herbicidal effect Abutilon theophrast” value in series [7] is listed as 5 (Herbicidal effect/phytotoxicity was 90% or greater). Further, the “Herbicidal effect Amaranthus viridis” value in series [8] is recorded as 5 (Herbicidal effect/phytotoxicity was 90% or greater). Besides, in series [9], the “Herbicidal effect Chenopodium album” value is 5 (Herbicidal effect/phytotoxicity was 90% or greater). In the series with corn, the “Phytotoxicity Corn” value is reported as 1 (Herbicidal effect/phytotoxicity was 10% to 30%).

In the case of `O=c1c(-c2cc(OC3CCCC3)c(Cl)cc2Cl)c(Cl)n2n1CCCC2` [Example 1-307], in series [1], the “Herbicidal effect Cyperus difformis” value is 5 (Herbicidal effect/phytotoxicity was 90% or greater). Moreover, the “Herbicidal effect Echinochloa oryzicola” value in series [2] is recorded as 5 (Herbicidal effect/phytotoxicity was 90% or greater). The “Herbicidal effect Eleocharis acicularis” value in [3] is reported as 5 (Herbicidal effect/phytotoxicity was 90% or greater). For the same molecule, in [4], the “Herbicidal effect Monochoria vaginalis” value is given as 5 (Herbicidal effect/phytotoxicity was 90% or greater). In addition, the “Herbicidal effect Scirpus juncoides” value in [5] is recorded as 5 (Herbicidal effect/phytotoxicity was 90% or greater). Also, the “Herbicidal effect Broadleaf weed” value in series [6] is given as 5 (Herbicidal effect/phytotoxicity was 90% or greater). The “Herbicidal effect Abutilon theophrast” value in [7] is reported as 5 (Herbicidal effect/phytotoxicity was 90% or greater). For the same molecule, the “Herbicidal effect Amaranthus viridis” value in series [8] is given as 5 (Herbicidal effect/phytotoxicity was 90% or greater). Moreover, the “Herbicidal effect Chenopodium album” value in series [9] is reported as 5 (Herbicidal effect/phytotoxicity was 90% or greater). Moreover, in the series on corn, the “Phytotoxicity Corn” value was 0 (Herbicidal effect/phytotoxicity was 0% to 10%).

For `C=CCOc1cc(-c2c(Cl)n3n(c2=O)CCCC3)c(F)cc1F` [Example 1-101], the “Herbicidal effect Cyperus difformis” value in series [1] is listed as 5 (Herbicidal effect/phytotoxicity was 90% or greater). Besides, in [2], the “Herbicidal effect Echinochloa oryzicola” value is reported as 5 (Herbicidal effect/phytotoxicity was 90% or greater). Further, the “Herbicidal effect Eleocharis acicularis” value in [3] is recorded as 5 (Herbicidal effect/phytotoxicity was 90% or greater). For the same molecule, the “Herbicidal effect Monochoria vaginalis” value in series [4] is 5 (Herbicidal effect/phytotoxicity was 90% or greater). In addition, the “Herbicidal effect Scirpus juncoides” value in series [5] is recorded as 5 (Herbicidal effect/phytotoxicity was 90% or greater). Besides, the “Herbicidal effect Broadleaf weed” value in series [6] is given as 5 (Herbicidal effect/phytotoxicity was 90% or greater). The “Herbicidal effect Abutilon theophrast” value in series [7] is recorded as 5 (Herbicidal effect/phytotoxicity was 90% or greater). Also, the “Herbicidal effect Amaranthus viridis” value in [8] is recorded as 5 (Herbicidal effect/phytotoxicity was 90% or greater). In addition, the “Herbicidal effect Chenopodium album” value in [9] was 5 (Herbicidal effect/phytotoxicity was 90% or greater). Further, the “Phytotoxicity Corn” value in the series on corn is reported as 3 (Herbicidal effect/phytotoxicity was 50% to 70%).

Regarding `O=c1c(-c2cc(OCC=Cc3ccc(F)cc3)c(Cl)cc2F)c(Cl)n2n1CCCC2` [Example 1-226], the “Herbicidal effect Cyperus difformis” value in series [1] is reported as 5 (Herbicidal effect/phytotoxicity was 90% or greater). The “Herbicidal effect Echinochloa oryzicola” value in series [2] is on record as 5 (Herbicidal effect/phytotoxicity was 90% or greater). The “Herbicidal effect Eleocharis acicularis” value in [3] is reported as 5 (Herbicidal effect/phytotoxicity was 90% or greater). The “Herbicidal effect Monochoria vaginalis” value in series [4] is given as 5 (Herbicidal effect/phytotoxicity was 90% or greater). Also, the “Herbicidal effect Scirpus juncoides” value in [5] is 5 (Herbicidal effect/phytotoxicity was 90% or greater). Also, in series [6], the “Herbicidal effect Broadleaf weed” value is reported as 5 (Herbicidal effect/phytotoxicity was 90% or greater). In addition, the “Herbicidal effect Abutilon theophrast” value in series [7] is recorded as 5 (Herbicidal effect/phytotoxicity was 90% or greater). The “Herbicidal effect Amaranthus viridis” value in [8] is given as 5 (Herbicidal effect/phytotoxicity was 90% or greater). Besides, the “Herbicidal effect Chenopodium album” value in series [9] was 5 (Herbicidal effect/phytotoxicity was 90% or greater). Further, the “Phytotoxicity Corn” value with corn was 3 (Herbicidal effect/phytotoxicity was 50% to 70%).
